Experimental data as given in US20110098227A1, “Soluble notch-based substrates for gamma secretase and methods and compositions for using same” (priority 2002, published 2011).

How the values were obtained:
[1] = target: T1, solubilized γ-secretase (Homo sapiens, UniProt P49768); experiment: In vitro Notch cleavage ELISA (NusA-Notch fusion cleaved by solubilized γ-secretase, Val-1744/anti-FLAG sandwich); assay type: biochemical
T1 construct: γ-secretase activity from HeLa cells specifically cleaves the Notch protein; endogenous in cells; host or cells: HeLa cells (detergent-solubilized membrane fraction); substrate made in E. coli BL21 (DE3)
Experimental: In vitro Notch Cleavage ELISA. Notch cleavage was also assessed using an ELISA technique. Prior to setting up a reaction, the required number of wells in a 96-well half-area plate (Costar) were coated with 50 μl of Val-1744 antibody diluted 1:200 in 0.1 M NaHCO3, pH 8.2. Plates were incubated overnight at 4° C. The Notch cleavage reaction was set up as follows. NusA-Notch (0.9 μM) was incubated with 70 mg/ml of solubilized γ-secretase in 50 mM Pipes, pH 7.0, 0.25% CHAPSO in a total volume of 25 μl overnight at 37° C. The next day, the plate coated with Val-1744 antibody was washed 3 times with PBS/0.05% Tween-20 and blocked using 4% BSA in PBS/0.05% Tween-20 for 1 hour. […] The color was allowed to develop for 1 hour and 50 µl of 1M H3PO4 was added and the plates read at 450 nm on a SpectraMax Plus plate reader. […]
Inhibition of Notch Cleavage. […] IC50′s were calculated for inhibitors using the 4-parameter logistic model in the GraFit 4.0 program.
It is based on a sandwich ELISA using the highly specific anti-Val 1744 and anti Flag antibodies to capture the N- and C-terminus of the NICD fragment from the Notch fusion protein in the presence of γ-secretase. […] The chromogenic substrate for HRP, TMB reagent (Kirkegaard & Perry) is added and the color once developed is read at 450 nm on a SpectraMax Plus plate reader.

[2] = target: T1, solubilized γ-secretase; experiment: Cleavage of Notch as determined by Western blot analysis; assay type: biochemical
Experimental: Cleavage of Notch as Determined by Western Blot Analysis. NusA-Notch fusion (1.7 μM) was incubated with 70 mg/ml solubilized γ-secretase in 50 mM Pipes, pH 7.0, 0.25% CHAPSO in a total volume of 50 μl overnight at 37° C. DAPT (PHA-568638) was added at varying concentrations. The reactions were stopped with the addition of 12.5 μl of 5× Laemmli buffer (Laemmli 1970) and 30 μl of the mixture was electrophoresed on a 15% SDS-PAGE. Proteins were transferred to nitrocellulose using a semi-dry blot apparatus (Millipore) and blocked for 2 hours using 4% BSA in PBS/0.5% Tween-20. […] The membrane was washed three times with PBS/0.5% Tween-20 followed by incubation with anti-rabbit IgG-HRP (1:5000 dil in 4% BSA in PBS/0.5% Tween-20). The membrane was again washed three times and developed using ECL reagents (Amersham, Piscataway, N.J.).

Row | Compound | Km ([1]; Michaelis-Menten fit, 0.11 to 3.6 μM substrate, FIG. 8A, read-out: apparent Km for hydrolysis of Notch fusion protein substrate by solubilized γ-secretase activity) [µM] | IC50 ([1]; NusA-Notch substrate, overnight 37° C., FIG. 9, read-out: IC50, inhibition of γ-secretase-mediated Notch cleavage) [nM] | inhibition of specific cleavage in Notch protein (1743/1744) ([2]; Western blot probed with Val-1744 antibody, varying concentrations, FIG. 5 lanes 4-8) | inhibition of cleavage products of Notch fusion protein ([2]; Western blot using the C-terminal Flag antibody, three immunoreactive bands)
1 | Notch fusion protein substrate: soluble fusion of mouse Notch-1 amino acids 1703-1860 to C-terminus of NusA with C-terminal Flag and 8His tags (SEQ ID NO:2) | ~0.7 |  |  | 
2 | C[C@H](NC(=O)Cc1cc(F)cc(F)c1)C(=O)N[C@H](C(=O)OC(C)(C)C)c1ccccc1 [DAPT] |  | 2.4 | inhibited in a dose-dependent manner | only one cleavage product was inhibitable
